Patent publication US9340504B2, “Pyridine and piperidine derivatives as novel sodium channel blockers” (priority 2013, dated 2016)
Like-named read-outs stand apart in the source and are kept apart here.

Target: human Nav1.7 (Homo sapiens (Human), UniProt Q15858)
Test: FLIPR or FLIPR TETRA sodium dye assay with KCl and test article pre-incubation
Type: cell-based
Conditions: read-out: Nav1.7 Activity (μM) FLIPR assay IC50 (μM) ± SEM
[1] = recombinant HEK293 cells expressing human Nav1.7 alpha subunit, CoroNa Green sodium dye, veratridine and scorpion venom as agonists

human Nav1.7, sequence (Q15858 with tags, fused parts or gaps limits assumed): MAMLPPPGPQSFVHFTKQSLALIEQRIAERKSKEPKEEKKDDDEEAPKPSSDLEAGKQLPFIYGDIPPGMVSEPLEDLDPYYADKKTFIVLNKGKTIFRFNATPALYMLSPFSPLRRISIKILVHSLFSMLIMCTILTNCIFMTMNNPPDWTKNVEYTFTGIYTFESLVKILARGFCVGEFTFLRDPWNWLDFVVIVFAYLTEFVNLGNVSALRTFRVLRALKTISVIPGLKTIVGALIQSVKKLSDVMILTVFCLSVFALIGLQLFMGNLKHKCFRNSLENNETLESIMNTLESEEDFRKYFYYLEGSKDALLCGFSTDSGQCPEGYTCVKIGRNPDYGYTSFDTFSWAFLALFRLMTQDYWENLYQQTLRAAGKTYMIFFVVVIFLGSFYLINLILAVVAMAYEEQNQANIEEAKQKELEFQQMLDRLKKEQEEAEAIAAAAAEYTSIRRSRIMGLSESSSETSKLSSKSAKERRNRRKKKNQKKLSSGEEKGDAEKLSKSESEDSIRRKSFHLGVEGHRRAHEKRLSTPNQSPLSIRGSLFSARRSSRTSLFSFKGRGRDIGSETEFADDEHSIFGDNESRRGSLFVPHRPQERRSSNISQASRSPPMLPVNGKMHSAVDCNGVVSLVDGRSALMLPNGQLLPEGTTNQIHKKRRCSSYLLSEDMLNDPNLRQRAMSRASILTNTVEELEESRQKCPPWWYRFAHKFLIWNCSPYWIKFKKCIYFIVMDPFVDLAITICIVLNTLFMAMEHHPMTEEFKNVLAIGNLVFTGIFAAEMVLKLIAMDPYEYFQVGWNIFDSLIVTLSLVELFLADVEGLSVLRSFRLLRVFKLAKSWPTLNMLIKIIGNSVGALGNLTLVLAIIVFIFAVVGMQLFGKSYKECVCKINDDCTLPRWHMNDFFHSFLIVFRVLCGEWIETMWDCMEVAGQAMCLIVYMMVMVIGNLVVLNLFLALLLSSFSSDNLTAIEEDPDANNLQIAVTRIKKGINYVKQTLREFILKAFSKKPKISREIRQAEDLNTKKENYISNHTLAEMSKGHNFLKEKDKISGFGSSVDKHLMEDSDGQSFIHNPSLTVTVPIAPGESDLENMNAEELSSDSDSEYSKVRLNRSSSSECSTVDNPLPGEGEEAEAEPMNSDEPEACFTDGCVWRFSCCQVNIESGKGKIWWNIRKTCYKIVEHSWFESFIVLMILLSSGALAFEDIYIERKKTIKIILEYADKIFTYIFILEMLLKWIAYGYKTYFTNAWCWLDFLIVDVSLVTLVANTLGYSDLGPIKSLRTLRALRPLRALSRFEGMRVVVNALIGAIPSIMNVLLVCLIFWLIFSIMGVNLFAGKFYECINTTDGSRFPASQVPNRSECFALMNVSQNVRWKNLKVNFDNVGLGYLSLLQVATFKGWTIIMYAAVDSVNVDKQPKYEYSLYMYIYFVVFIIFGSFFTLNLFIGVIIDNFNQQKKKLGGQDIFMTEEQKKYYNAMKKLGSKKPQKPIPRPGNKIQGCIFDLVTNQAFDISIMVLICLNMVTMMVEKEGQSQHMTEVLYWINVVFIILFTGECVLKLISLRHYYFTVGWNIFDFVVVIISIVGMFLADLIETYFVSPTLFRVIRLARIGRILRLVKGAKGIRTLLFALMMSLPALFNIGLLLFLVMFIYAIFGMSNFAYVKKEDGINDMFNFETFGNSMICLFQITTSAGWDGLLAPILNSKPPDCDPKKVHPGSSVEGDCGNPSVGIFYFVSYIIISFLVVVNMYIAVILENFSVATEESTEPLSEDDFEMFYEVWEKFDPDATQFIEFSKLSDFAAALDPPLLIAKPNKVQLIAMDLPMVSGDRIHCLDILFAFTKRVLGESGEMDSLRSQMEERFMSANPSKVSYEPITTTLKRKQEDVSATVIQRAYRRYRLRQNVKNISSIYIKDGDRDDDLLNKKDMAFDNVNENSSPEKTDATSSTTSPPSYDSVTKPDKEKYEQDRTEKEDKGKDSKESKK

SMILES	IC50 [1] [µM]	IC50 [µM]
Fc1ccc(-c2ccccc2Cc2cccc(-c3ccc(OCC(F)(F)F)nc3)n2)cn1 [Compound 12, 6-(2-(6-fluoropyridin-3-yl)benzyl)-6′-(2,2,2-trifluoroethoxy)-2,3′-bipyridine]	> 20	–
COc1ncc(-c2ccccc2Cc2cccc(-c3ccc(OCC(F)(F)F)nc3)n2)cn1 [Compound 13, 6-(2-(2-methoxypyrimidin-5-yl)benzyl)-6′-(2,2,2-trifluoroethoxy)-2,3′-bipyridine]	–	0.849 ± 0.069
Oc1ccccc1Cc1cccc(-c2ccc(OCC(F)(F)F)nc2)n1 [Compound 8, 2-((6′-(2,2,2-trifluoroethoxy)-[2,3′-bipyridin]-6-yl)methyl)phenol]	> 20	–
CSc1ncc(-c2ccccc2Cc2cccc(-c3ccc(OCC(F)(F)F)nc3)n2)cn1 [Compound 14, 6-(2-(2-(methylthio)pyrimidin-5-yl)benzyl)-6′-(2,2,2-trifluoroethoxy)-2,3′-bipyridine]	0.947 ± 0.06	–
COc1ncccc1-c1ccccc1Cc1cccc(-c2ccc(OCC(F)(F)F)nc2)n1 [Compound 11, 6-(2-(2-methoxypyridin-3-yl)benzyl)-6′-(2,2,2-trifluoroethoxy)-2,3′-bipyridine]	> 20	–
CN(C)c1ncc(-c2ccccc2Cc2cccc(-c3ccc(OCC(F)(F)F)nc3)n2)cn1 [Compound 15, N,N-dimethyl-5-(2-((6′-(2,2,2-trifluoroethoxy)-[2,3′-bipyridin]-6-yl)methyl)phenyl)pyrimidin-2-amine]	0.34 ± 0.012	–
